# Source: patent publication EP0035856A2, “Pharmaceutical and dietary compositions” (EFAMOL LIMITED, priority 1980, dated 1981)
# Read-outs that look alike come from different tables or passages of the source.
# How the values were obtained:
# [1] = test system: rat mesenteric vascular bed; details: cited from earlier work; for inhibitory action on noradrenaline responses with intact PG synthesis versus PG synthesis blocked: PG synthesis blocked by indomethacin or by aspirin
# Kidney slices (rat) = assay: Conversion of 14C-labelled DGLA and AA to PGEs in rat kidney slices; assay type: cell-based; details: 5 μg/ml drug, percentage of control incubation with drug vehicle alone, 10% variation is a real change
# Method: The conversions of the precursors to the respective PGEs and TXBs in platelets and to the PGEs in kidney slices were investigated. The results are shown in the following tables and are expressed as percentages of the results obtained during control incubations when drug vehicle alone was added. A 10% variation is a reliable indication of real change.
# The detailed technique with platelets is given below by way of example. That with kidney slices was essentially similar.
# (1-^14C) arachidonic acid and (1-^14C) dihomo-y-linolenic acid was used, diluted with hexane to specific activities of about 2 or 5 µCi/µmol. One day expired (2 days old) human platelets were obtained and used within 48 hours of expiration. One unit was centrifuged at lOOOg for 15 minutes and the supernatant drawn off. The platelet pellet was resuspended in Tris-NaCl-EDTA buffer, made up of 0.15 M NaCl, 0.15 M Tris HC1 at pH 7.4 and 0.077 M NaEDTA (90:8:2 v/v/v). The platelets were recentrifuged, the supernatant removed and the pellet resuspended in Krebs-Henseleit buffer (without calcium) at oH 7.4. The washed platelet suspension contained about 1-2% red blood cells. All glassware used in the preparation of the platelets was siliconized.
# Four equal sized 1 ml aliquots of the platelet suspension, containing 10^9 platelets/ml were incubated with e.g. 0.5 µCi 14 C-DGLA for five minutes. At the beginning of the incubation the drug under test was added to the suspensions. The reaction was stopped after five minutes by addition of 1/10 volume of 10% formic acid. The suspension was then extracted three times with ethyl acetate and the fractions pooled and dried under vacuum. The extract was then taken up with 5 ml chloroform/methanol (2/1, v/v). Recovery of radioactive material in the extract was checked by taking 50pl of the chloroform/methanol and counting by liquid scintillation. Recovery was in the range 80-95% in most experiments.
# The chloroform/methanol extract was then reduced in volume to 1 ml under dry prepurified nitrogen. Thin layer chromatography was carried out on […] precoated, prescored silica gel G Uniplates (Analtech). Plates were activated by heating to 100°C for 1 hour immediately prior to use. The solvent system was chloroform:methanol: acetic acid:water (90:8:1:0.8). Reference compounds (PG's El and Fla, and thromboxane Bl) were run at the same time and visualized by phosphomolybdic acid spray followed by brief heating. The bands on the plates corresponding to the reference PGE 1,PFG la and TXB 1 were scraped off and eluted with 20 ml acetone. Each elution was then evaporated to dryness and counted by liquid scintillation (Beckman 100 LS counter). […]
# Platelets (human) = assay: Conversion of 14C-labelled DGLA and AA to PGEs and TXBs in human platelets; assay type: cell-based; details: Platelet, 5 μg/ml drug, percentage of control incubation with drug vehicle alone
# Method: The method is given in detail later herein but briefly human platelets are incubated with radioactive DGLA or arachidonic acid. The PGs produced during incubation are extracted by conventional means and separated by thin layer chromatography, and the amount of radioactivity appearing in each PG or related substance is counted. PGE 1, PGF la and thromboxane Bl from DGLA, and PGE 2, PFG 2a and thromboxane B2 from AA are estimated.
# The conversions of the precursors to the respective PGEs and TXBs in platelets and to the PGEs in kidney slices were investigated. […] A 10% variation is a reliable indication of real change.
# The chloroform/methanol extract was then reduced in volume to 1 ml under dry prepurified nitrogen. Thin layer chromatography was carried out on 500 µg precoated, prescored silica gel G Uniplates (Analtech). Plates were activated by heating to 100°C for 1 hour immediately prior to use. The solvent system was chloroform:methanol: acetic acid:water (90:8:1:0.8). Reference compounds (PG's El and Fla, and thromboxane Bl) were run at the same time and visualized by phosphomolybdic acid spray followed by brief heating. […] Each elution was then evaporated to dryness and counted by liquid scintillation (Beckman 100 LS counter). […]
# [2] = read-out: PGE 1 formed from precursor acid DGLA
# [3] = read-out: PGE 2 formed from precursor acid AA
SMILES,effect on responses to noradrenaline [1],inhibitory action on noradrenaline responses with intact PG synthesis versus PG synthesis blocked [1],other results
CCCCC[C@H](O)/C=C/[C@H]1[C@H](O)CC(=O)[C@@H]1CCCCCCC(=O)O [PGE 1],inhibit responses to noradrenaline,–,–
CCN(CC)CCCC(C)Nc1c2ccc(Cl)cc2nc2ccc(OC)cc12 (centres unmarked) [quinacrine],–,share this effect of chloroquine,–
C=C[C@H]1C[N@@]2CC[C@H]1C[C@@H]2[C@@H](O)c1ccnc2ccc(OC)cc12 [quinidine],–,share this effect of chloroquine,–
CC(=O)S[C@@H]1CC2=CC(=O)CC[C@]2(C)[C@H]2CC[C@@]3(C)[C@@H](CC[C@@]34CCC(=O)O4)[C@H]12 [spironolactone],–,–,activity at 5 µg/mL (Kidney slices (rat); [2]): 143%; activity at 5 µg/mL (Kidney slices (rat); [3]): 67%
C=C[C@H]1C[N@@]2CC[C@H]1C[C@H]2[C@H](O)c1ccnc2ccc(OC)cc12 [quinine],–,share this effect of chloroquine,–
CCN(CC)CCOC(=O)c1ccc(N)cc1 [procaine],–,share this effect of chloroquine,–
"CCCCC/C=C\C/C=C\C/C=C\CCCCCCC(=O)O [DGLA, dihomo-y-linolenic acid]",inhibit responses to noradrenaline,–,–
"CCCCC/C=C\C/C=C\C/C=C\C/C=C\CCCC(=O)O [AA, arachidonic acid]",increase noradrenaline responses,–,–
CCN(CC)CCCC(C)Nc1ccnc2cc(Cl)ccc12 (centres unmarked) [chloroquine],inhibits responses to noradrenaline,more potent when endogenous prostaglandin synthesis is intact,activity at 5 µg/mL (Platelets (human); [2]): 132%; activity at 5 µg/mL (Platelets (human); [3]): 98%; activity at 5 µg/mL (Platelets (human); read-out: TXB 1 formed from precursor acid DGLA): 128%; activity at 5 µg/mL (Platelets (human); read-out: TXB 2 formed from precursor acid AA): 97%; activity at 5 µg/mL (Kidney slices (rat); [2]): 129%; activity at 5 µg/mL (Kidney slices (rat); [3]): 101%
